A word on the Ki: it is a dissociation constant, usually derived from enzyme kinetics or from competition with a known ligand. In general, inhibition refers to the share of the control response that was lost under treatment.

Data set [1] is described as follows: Displacement of [3H]MK801 from NMDA receptor (unknown origin) by radioligand binding assay. Also on record: species or system Homo sapiens. (In general: Displacement assays read how much labelled ligand stays bound in the presence of the test substance.)
For data set [2], the system named is SH-SY5Y. Briefly: Cytotoxicity against human SH-SY5Y cells assessed as reduction in cell viability at 10 to 100 uM incubated for 24 hrs by MTT assay. The format is cell-based. The following applies: dose 10-100 µM.
In data set [3] the test system is SH-SY5Y. Briefly: Neuroprotective activity against MPP+-induced neurotoxicity in human SH-SY5Y cells assessed as cell viability at 10 uM pretreated for 2 hrs followed by MPP+ challenge and measured after 24 hrs by MTT assay relative to control. Particulars: time 26 hrs, read-out: Activity. The format is functional.
Data set [4] concerns SH-SY5Y. Briefly: Blockade of VGCC in human SH-SY5Y cells assessed as inhibition of membrane depolarisation-induced calcium influx at 10 uM by Fura-2AM dye based fluorescence analysis relative to control. The format is cell-based.
Data set [5] in a line: Cytotoxicity against human SH-SY5Y cells assessed as cell viability at 10 uM incubated for 24 hrs by MTT assay relative to control. The format is cell-based. The following applies: read-out: Activity. Background: Formazan colour is commonly taken as a measure of viable cells.
In data set [6] the test system is SH-SY5Y. Put plainly: Antagonist activity at NMDA receptor in human SH-SY5Y cells assessed as inhibition of calcium influx at 10 uM by Fura-2AM dye based fluorescence analysis relative to control. The format is cell-based.
The nature of data set [7]: Antagonist activity at NMDA receptor (unknown origin). Also on record: species or system Homo sapiens.
Data set [8] in a line: Displacement of [3H]MK801 from NMDA receptor in Sprague-Dawley rat cerebral cortical membrane incubated for 60 mins by liquid scintillation counting analysis. The format is cell membranes, Cerebral cortex.
The nature of data set [9]: Displacement of [3H]MK801 from NMDA receptor in human brain by radioligand binding assay. It counts as tissue-based.
Data set [10] in a line: Cytotoxicity against human SH-SY5Y cells assessed as cell viability at 100 uM incubated for 24 hrs by MTT assay relative to control. The format is cell-based. The following applies: read-out: Activity.

Calls of active or inactive are those of the source. No cut-off for these calls is given here.

On to `CN[C@@]1(c2ccccc2Cl)CCCCC1=O`, for which the Ki in data set [1] came out at 659 nM.

Turning to `O=C1C=C[C@H](NCc2ccccc2)[C@@H]2[C@H]1[C@H]1C=C[C@@H]2C1`, the Activity entry in the data set with SH-SY5Y [2] is recorded as “Toxic”. In the data set with SH-SY5Y [3], the viability at 10 µM was found to be 33.7%. Further, the figures for the inhibition in the data set on SH-SY5Y [4] and in the data set with SH-SY5Y [6] were 21.3% and 26.5%, respectively. For the same molecule, the viability at 24 h, 10 µM in data set [5] is 108%.

`NC12CC3CC(CC(C3)C1)C2` [AMANTADINE] displayed a Ki in data set [7] of 10000 nM.

On to `O=C1C2C3C=CC(C3)C2C(=O)C2C3C=CC(C3)C12` (stereo not given), for which the Activity result with SH-SY5Y [2] is given as “Non-Toxic”. Also, the viability at 10 µM with SH-SY5Y [3] was determined as 41.4%. The inhibition turned out to be 50.3% in the data set on SH-SY5Y [4] and 62.3% with SH-SY5Y [6] (filed as antagonist). Also, the viability at 24 h, 10 µM in data set [5] was 95.9%.

Regarding `O=C1CC[C@H](O)C2C3C=C[C@@H](C3)C12` (single isomer, unassigned), the Activity entry with SH-SY5Y [2] is given as “Non-Toxic”. Also, the viability at 10 µM with SH-SY5Y [3] came out at 35%. For the same molecule, the inhibition in the data set on SH-SY5Y [4] is 32.8%; in the data set with SH-SY5Y [6] (filed as antagonist), 69.7%. The viability at 24 h, 10 µM in [5] stood at 96.3%.

In the case of `COCCOC(=O)C1=C(C)NC(C)=C(C(=O)OC(C)C)C1c1cccc([N+](=O)[O-])c1` (stereo not given), the inhibition in the data set with SH-SY5Y [4] worked out at 34.1%. Also, the inhibition result in the data set on SH-SY5Y [6] was “inactive”.

`O=C1CC[C@H]2C[C@@H]1CCC2=O`: the Activity entry in the data set with SH-SY5Y [2] was “Non-Toxic”. For the same molecule, the viability at 10 µM in the data set with SH-SY5Y [3] was 26.1%. Moreover, the inhibition result with SH-SY5Y [4] is “inactive”. In addition, in [5], the viability at 24 h, 10 µM is 125%. Also, the inhibition with SH-SY5Y [6] (filed as antagonist) was found to be 73%.

Turning to `C[C@@]12N[C@@H](Cc3ccccc31)c1ccccc12`, the inhibitory constant (Ki) in [8] was 37.2 nM. The inhibition entry in the data set with SH-SY5Y [4] was “inactive”. Moreover, in the data set on SH-SY5Y [6] (filed as antagonist), the inhibition came to 47.5%.

Consider `C1C2OC2[C@H]2[C@@H]1[C@H]1C[C@@H]2C2OC21` (stereo not given in full), for which the Activity result with SH-SY5Y [2] is recorded as “Toxic”. In the data set with SH-SY5Y [3], the viability at 10 µM amounted to 27.9%. Moreover, the inhibition in the data set on SH-SY5Y [4] amounted to 8.49%; with SH-SY5Y [6] (filed as antagonist), 53.3%. The viability at 24 h, 10 µM in data set [5] stood at 94.4%.

For `CC12CC3CC(C)(C1)CC(N)(C3)C2` [MEMANTINE], the inhibition constant (Ki) in data set [9] was determined as 540 nM. In other words, the sub-micromolar range.

Turning to `O[C@@H]1C[C@H]2CC[C@@H]1NC2`, the viability at 24 h, 100 µM in data set [10] turned out to be 59%. Further, the Activity entry in the data set on SH-SY5Y [2] is “Toxic”. For the same molecule, in the data set on SH-SY5Y [3], the viability at 10 µM was 28.3%. In addition, the inhibition entry with SH-SY5Y [4] was “inactive”. Also, the viability at 24 h, 10 µM in [5] is 96.3%. The inhibition in the data set on SH-SY5Y [6] (filed as antagonist) was determined as 43.5%.

With `O=C1CCC(=O)[C@H]2[C@@H]1[C@H]1C=C[C@H]2C1`, in the data set on SH-SY5Y [2], the Activity entry is “Toxic”. Also, the viability at 10 µM in the data set with SH-SY5Y [3] came out at 40.6%. In addition, the results for the inhibition in the data set with SH-SY5Y [4] and in the data set with SH-SY5Y [6] (filed as antagonist) were 25.4% and 51%, respectively. The viability at 24 h, 10 µM in data set [5] was 96.6%.

For the molecule `c1ccc(C2(N3CCCCC3)CCCCC2)cc1` [PHENCYCLIDINE], affinity in data set [1] was put at a Ki of 59 nM. In other words, the double-digit nanomolar range.

With `O=C1C=C[C@H](NN2CCCCC2)[C@@H]2[C@H]1[C@H]1C=C[C@@H]2C1`, the Activity result in the data set with SH-SY5Y [2] is “Non-Toxic”. Further, the viability at 10 µM in the data set with SH-SY5Y [3] came out at 33.9%. The inhibition in the data set with SH-SY5Y [4] amounted to 8.4%; in the data set with SH-SY5Y [6] (filed as antagonist) it was 65.3%. In [5], the viability at 24 h, 10 µM amounted to 93.7%.

In the case of `C1=C[C@H]2CC[C@@H]1[C@H]1CNC[C@H]12`, the Activity result in the data set on SH-SY5Y [2] is listed as “Non-Toxic”. In addition, the viability at 10 µM with SH-SY5Y [3] is 27.5%. Moreover, the inhibition in the data set with SH-SY5Y [4] stood at 5.79%; in the data set with SH-SY5Y [6] (filed as antagonist), 55.5%. For the same molecule, the viability at 24 h, 10 µM in data set [5] is 108%.

In the case of `O=C1C=CC(=O)[C@H]2[C@@H]1[C@H]1C=C[C@H]2C1`, the Activity result in the data set on SH-SY5Y [2] is “Toxic”. The viability at 10 µM in the data set on SH-SY5Y [3] was 32.8%. Further, the inhibition with SH-SY5Y [4] amounted to 15%; with SH-SY5Y [6] (filed as antagonist) it was 43.8%. For the same molecule, in data set [5], the viability at 24 h, 10 µM was 97.7%.

Source of the values: ChEMBL document CHEMBL4765400, “Open and rearranged norbornane derived polycyclic cage molecules as potential neuroprotective agents through attenuation of MPP- and calcium overload-induced excitotoxicity in neuroblastoma SH-SY5Y cells” (Eur J Med Chem, 2020).
